Where “and” joins values, the source holds several entries; their conditions need not be identical. Equal values may be shown once. Read-outs that look alike come from different tables or passages of the source.
What was measured:
Assay in all cases: SelectScreen kinase assay
[1] = target: STK22D (TSSK1) (Homo sapiens, UniProt Q9BXA7); settings: 1 h, 1 μM WEL028, 1 h preincubation
Method: (§1) Selectivity profiling assays were performed by the Invitrogen SelectScreen™ Services. […] The concentration of ATP was selected to be equal to the KM, unless indicated otherwise.

[2] = target: DMPK (Homo sapiens, UniProt Q09013)
Method: as §1

[3] = target: STK16 (PKL12) (Homo sapiens, UniProt O75716)
Method: as §1

[4] = target: T1, HIPK4 (Homo sapiens, UniProt Q8NE63)
T1 sequence (Q8NE63 1-616): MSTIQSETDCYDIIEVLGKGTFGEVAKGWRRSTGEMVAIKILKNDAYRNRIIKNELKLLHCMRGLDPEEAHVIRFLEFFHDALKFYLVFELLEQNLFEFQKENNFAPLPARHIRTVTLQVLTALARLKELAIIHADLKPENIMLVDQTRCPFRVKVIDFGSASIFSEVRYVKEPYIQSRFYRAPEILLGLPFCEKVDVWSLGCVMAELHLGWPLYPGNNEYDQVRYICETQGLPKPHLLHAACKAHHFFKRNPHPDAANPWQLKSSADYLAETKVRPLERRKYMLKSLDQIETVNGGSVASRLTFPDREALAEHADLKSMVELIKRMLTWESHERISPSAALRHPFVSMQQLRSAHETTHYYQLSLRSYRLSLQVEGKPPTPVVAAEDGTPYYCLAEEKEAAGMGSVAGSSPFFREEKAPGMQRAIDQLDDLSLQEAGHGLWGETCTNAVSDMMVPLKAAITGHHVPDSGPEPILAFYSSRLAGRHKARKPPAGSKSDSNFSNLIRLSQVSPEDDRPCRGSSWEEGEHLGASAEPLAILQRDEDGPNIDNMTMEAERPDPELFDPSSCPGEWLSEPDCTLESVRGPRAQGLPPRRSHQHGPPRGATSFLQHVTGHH
Method: as §1

[5] = target: AKT2 (PKB beta) (Homo sapiens, UniProt P31751); settings: for Inhibition at 1 µM (%): AKT2 (PKB beta), ZLYTE, ATP Km app
Chain of AKT2 (PKB beta) (P31751 whole entry): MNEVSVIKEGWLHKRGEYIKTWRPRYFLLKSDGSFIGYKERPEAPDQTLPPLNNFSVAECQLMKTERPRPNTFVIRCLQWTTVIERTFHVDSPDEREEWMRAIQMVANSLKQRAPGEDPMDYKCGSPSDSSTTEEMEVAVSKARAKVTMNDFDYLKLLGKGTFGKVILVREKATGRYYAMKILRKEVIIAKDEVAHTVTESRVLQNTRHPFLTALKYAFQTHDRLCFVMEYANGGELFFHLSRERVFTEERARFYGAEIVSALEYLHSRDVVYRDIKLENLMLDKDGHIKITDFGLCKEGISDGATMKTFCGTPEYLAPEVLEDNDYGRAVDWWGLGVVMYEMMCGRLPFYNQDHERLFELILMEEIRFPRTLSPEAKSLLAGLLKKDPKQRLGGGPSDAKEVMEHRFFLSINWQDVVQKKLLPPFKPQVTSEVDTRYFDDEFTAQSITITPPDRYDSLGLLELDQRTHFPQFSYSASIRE
Method: as §1

[6] = target: MLK4 (Homo sapiens, UniProt Q5TCX8)
Chain of MLK4 (Q5TCX8 whole entry): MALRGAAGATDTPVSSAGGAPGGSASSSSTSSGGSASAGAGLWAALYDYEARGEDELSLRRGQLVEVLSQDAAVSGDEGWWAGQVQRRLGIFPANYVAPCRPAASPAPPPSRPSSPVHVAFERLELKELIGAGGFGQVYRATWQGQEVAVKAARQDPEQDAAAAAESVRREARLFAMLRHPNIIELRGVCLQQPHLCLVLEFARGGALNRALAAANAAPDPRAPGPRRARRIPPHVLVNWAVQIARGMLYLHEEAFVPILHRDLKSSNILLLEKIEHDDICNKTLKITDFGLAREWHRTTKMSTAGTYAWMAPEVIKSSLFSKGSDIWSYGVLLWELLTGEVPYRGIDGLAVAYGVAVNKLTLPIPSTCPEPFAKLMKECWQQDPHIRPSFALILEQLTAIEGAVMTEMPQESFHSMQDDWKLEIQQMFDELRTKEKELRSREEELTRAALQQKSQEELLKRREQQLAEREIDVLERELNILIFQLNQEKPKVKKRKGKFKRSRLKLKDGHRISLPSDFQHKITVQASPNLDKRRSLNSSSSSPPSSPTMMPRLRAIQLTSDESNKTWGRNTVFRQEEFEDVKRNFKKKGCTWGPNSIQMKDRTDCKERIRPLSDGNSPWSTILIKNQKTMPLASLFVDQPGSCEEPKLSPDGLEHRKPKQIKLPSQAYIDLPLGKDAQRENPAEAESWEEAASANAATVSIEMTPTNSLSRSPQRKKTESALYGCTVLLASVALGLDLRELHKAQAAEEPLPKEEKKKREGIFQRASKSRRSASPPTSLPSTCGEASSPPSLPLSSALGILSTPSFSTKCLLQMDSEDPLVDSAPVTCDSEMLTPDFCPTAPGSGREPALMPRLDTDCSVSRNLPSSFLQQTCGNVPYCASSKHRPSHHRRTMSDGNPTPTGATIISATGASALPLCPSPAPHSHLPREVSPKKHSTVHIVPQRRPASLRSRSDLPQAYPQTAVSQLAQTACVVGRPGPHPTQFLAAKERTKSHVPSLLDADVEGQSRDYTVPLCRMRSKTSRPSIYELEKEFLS
Method: as §1

[7] = target: T2, GRK1 (Homo sapiens, UniProt Q15835)
T2 sequence (Q15835 1-563): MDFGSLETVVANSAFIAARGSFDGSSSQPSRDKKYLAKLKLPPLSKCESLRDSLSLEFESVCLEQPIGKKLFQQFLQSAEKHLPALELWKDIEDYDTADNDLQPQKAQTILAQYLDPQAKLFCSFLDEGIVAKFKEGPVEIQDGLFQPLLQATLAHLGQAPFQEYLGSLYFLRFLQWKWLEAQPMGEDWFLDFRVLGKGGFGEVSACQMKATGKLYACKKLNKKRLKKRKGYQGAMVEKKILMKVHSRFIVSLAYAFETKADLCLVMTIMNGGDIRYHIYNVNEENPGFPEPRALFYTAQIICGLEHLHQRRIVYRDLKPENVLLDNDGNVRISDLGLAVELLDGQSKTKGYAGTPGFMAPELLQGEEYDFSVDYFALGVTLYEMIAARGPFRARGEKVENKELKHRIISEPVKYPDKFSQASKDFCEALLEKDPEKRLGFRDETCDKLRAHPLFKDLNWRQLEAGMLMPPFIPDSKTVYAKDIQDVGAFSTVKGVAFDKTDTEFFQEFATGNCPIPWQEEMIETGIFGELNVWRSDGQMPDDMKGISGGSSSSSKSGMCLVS
Method: as §1

[8] = target: CDK17/cyclin Y (Homo sapiens, UniProt Q00537)
Method: as §1

[9] = target: CAMKK1 (CAMKKA) (Homo sapiens, UniProt Q8N5S9)
Chain of CAMKK1 (CAMKKA) (Q8N5S9 whole entry): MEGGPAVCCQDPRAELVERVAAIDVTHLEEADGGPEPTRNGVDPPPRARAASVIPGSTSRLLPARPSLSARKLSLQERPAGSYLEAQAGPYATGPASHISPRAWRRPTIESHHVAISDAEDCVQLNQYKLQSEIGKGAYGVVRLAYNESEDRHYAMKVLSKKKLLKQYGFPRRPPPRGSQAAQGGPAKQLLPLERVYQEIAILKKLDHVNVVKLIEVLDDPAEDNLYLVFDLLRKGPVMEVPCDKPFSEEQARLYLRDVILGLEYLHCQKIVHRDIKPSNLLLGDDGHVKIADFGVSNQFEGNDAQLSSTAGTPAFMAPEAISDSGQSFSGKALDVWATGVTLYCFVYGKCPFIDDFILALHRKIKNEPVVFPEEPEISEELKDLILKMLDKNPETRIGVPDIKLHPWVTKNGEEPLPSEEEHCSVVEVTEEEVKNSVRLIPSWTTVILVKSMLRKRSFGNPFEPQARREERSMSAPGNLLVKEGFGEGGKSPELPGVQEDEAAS
Method: as §1

[10] = target: DAPK3 (ZIPK) (Homo sapiens, UniProt O43293); settings: for Inhibition at 1 µM (%): DAPK3 (ZIPK), ZLYTE, ATP Km app
Chain of DAPK3 (ZIPK) (O43293 whole entry): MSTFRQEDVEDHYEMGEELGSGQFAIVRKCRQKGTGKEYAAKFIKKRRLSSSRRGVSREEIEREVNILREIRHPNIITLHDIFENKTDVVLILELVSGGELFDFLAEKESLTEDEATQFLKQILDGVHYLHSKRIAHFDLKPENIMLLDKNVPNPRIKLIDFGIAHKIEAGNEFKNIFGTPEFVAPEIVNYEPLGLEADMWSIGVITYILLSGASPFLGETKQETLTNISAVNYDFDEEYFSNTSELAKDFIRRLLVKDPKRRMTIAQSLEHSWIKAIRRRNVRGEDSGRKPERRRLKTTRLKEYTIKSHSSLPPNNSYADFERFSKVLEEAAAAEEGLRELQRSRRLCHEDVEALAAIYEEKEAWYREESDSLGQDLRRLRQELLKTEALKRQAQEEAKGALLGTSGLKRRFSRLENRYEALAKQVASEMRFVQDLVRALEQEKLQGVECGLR
Method: as §1

[11] = target: TAOK1 (Homo sapiens, UniProt Q7L7X3)
Chain of TAOK1 (Q7L7X3 whole entry): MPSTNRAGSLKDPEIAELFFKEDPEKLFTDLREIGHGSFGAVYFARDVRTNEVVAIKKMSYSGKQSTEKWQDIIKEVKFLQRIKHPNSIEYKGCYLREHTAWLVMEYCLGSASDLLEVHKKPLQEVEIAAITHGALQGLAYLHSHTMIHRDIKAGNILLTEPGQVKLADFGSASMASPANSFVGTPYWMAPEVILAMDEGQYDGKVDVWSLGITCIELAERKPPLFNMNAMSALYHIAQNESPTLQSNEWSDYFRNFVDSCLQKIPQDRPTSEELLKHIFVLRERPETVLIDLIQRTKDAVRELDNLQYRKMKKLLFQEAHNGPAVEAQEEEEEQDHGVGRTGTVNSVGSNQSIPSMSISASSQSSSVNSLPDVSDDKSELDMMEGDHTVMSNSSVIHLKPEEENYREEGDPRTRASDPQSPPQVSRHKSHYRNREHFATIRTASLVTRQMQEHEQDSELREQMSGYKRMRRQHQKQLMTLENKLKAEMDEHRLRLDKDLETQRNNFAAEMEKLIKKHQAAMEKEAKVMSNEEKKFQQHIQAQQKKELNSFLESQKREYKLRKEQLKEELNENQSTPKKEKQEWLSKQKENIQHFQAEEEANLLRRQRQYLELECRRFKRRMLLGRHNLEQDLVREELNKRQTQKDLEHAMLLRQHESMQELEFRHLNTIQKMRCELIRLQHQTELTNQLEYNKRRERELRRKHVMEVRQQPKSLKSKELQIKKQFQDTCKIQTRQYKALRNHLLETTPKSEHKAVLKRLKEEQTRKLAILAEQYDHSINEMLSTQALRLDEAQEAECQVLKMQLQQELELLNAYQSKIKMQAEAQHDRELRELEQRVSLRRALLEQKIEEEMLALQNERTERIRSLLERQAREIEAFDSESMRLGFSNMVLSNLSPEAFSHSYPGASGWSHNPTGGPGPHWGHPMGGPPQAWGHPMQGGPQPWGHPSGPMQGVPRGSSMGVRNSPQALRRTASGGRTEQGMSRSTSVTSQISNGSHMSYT
Method: as §1

[12] = target: MAP2K2 (MEK2) (Homo sapiens, UniProt P36507)
Chain of MAP2K2 (MEK2) (P36507 whole entry, species assumed): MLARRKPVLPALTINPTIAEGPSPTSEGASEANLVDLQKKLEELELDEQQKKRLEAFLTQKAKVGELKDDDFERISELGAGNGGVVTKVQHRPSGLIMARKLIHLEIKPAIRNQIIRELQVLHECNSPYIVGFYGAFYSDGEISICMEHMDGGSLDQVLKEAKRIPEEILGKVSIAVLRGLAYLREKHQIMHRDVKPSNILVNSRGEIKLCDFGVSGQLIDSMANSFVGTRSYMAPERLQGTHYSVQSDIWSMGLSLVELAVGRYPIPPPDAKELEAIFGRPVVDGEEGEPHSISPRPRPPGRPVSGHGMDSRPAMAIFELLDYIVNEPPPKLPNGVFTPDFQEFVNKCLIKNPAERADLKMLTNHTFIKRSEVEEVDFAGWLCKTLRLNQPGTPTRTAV
Method: as §1

[13] = target: T3, MAP2K3 (MEK3) (Homo sapiens, UniProt P46734)
T3 sequence (P46734 1-347): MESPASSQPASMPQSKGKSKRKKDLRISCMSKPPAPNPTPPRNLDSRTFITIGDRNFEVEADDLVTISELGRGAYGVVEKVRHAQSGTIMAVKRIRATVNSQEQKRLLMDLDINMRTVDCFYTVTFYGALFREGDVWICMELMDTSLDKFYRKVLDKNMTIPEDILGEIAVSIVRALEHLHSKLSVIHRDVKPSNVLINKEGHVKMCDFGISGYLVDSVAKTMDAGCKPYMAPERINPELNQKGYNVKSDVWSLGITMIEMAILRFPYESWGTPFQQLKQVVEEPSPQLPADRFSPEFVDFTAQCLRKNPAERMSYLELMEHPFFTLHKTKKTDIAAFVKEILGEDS
Method: as §1

[14] = 1 h, 1 μM WEL028, 1 h preincubation
[15] = read-out: Inhibition at 1 µM (%), 1 µM, LanthaScreen Binding

Chain of DMPK (Q09013 whole entry): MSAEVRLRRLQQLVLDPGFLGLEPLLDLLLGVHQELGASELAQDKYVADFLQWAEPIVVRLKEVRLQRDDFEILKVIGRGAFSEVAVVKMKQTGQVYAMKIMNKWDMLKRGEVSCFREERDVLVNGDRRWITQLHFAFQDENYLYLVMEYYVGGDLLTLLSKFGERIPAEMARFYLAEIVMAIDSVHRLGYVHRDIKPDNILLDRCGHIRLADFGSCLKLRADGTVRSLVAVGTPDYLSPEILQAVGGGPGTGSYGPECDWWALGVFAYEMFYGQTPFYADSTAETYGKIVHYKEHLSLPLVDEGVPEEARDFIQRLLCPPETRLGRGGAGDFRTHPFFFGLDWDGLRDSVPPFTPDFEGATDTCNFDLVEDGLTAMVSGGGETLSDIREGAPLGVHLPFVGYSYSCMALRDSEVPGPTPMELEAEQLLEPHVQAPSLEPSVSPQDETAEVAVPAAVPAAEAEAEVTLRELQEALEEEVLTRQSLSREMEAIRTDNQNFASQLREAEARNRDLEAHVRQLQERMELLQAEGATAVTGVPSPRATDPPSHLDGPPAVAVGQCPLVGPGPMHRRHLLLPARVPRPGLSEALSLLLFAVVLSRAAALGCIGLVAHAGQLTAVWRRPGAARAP
Chain of STK16 (PKL12) (O75716 whole entry): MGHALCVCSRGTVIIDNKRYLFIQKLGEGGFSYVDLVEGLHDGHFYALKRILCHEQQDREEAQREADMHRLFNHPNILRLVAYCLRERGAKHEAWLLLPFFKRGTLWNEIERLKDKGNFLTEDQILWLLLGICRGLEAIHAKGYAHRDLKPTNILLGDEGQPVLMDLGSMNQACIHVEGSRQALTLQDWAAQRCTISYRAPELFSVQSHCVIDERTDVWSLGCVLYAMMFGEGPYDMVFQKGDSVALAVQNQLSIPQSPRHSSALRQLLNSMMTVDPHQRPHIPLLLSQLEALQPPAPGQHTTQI

## C#CCOc1ccc(Nc2ncc(Cl)c(Nc3ccccc3NC(=O)C=C)n2)c(OC)c1 [Compound 6]
[1]
  inhibition at 1 µM: 19%
[2]; [14]
  inhibition at 1 µM: 3%
[2]; DMPK, 1 µM, LanthaScreen Binding, listed as WEL028, 1 µM
  Inhibition at 1 µM (%): 1% and 5%
[3]; 1 µM, LanthaScreen Binding, listed as WEL028, 1 µM
  Inhibition at 1 µM (%): 29%
[3]; [14]
  inhibition at 1 µM: 32%
[3]; [15]
  inhibition at 1 µM: 35%
[4]; [14]
  inhibition at 1 µM: 14%
[4]; HIPK4, 1 µM, ZLYTE, ATP Km app, listed as WEL028, 1 µM
  Inhibition at 1 µM (%): 16%
[4]; read-out: Inhibition at 1 µM (%), HIPK4, 1 µM, ZLYTE, ATP Km app
  inhibition at 1 µM: 12%
[5]; [14]
  inhibition at 1 µM: -1%
[5]
  Inhibition at 1 µM (%): -2%
[5]; listed as WEL028, 1 µM
  Inhibition at 1 µM (%): 0%
[6]; [14]
  inhibition at 1 µM: 3%
[6]; MLK4, 1 µM, LanthaScreen Binding, listed as WEL028, 1 µM
  Inhibition at 1 µM (%): 6% and 0%
[7]; [14]
  inhibition at 1 µM: 8%
[7]; GRK1, 1 µM, LanthaScreen Binding, listed as WEL028, 1 µM
  Inhibition at 1 µM (%): 7%
[7]; read-out: Inhibition at 1 µM (%), GRK1, 1 µM, LanthaScreen Binding
  inhibition at 1 µM: 9%
[8]; [14]
  inhibition at 1 µM: 4%
[8]; read-out: Inhibition at 1 µM (%), CDK17/cyclin Y, 1 µM, ZLYTE, ATP Km app
  inhibition at 1 µM: 5%
[9]; [14]
  inhibition at 1 µM: 22%
[9]; CAMKK1 (CAMKKA), 1 µM, LanthaScreen Binding, listed as WEL028, 1 µM
  Inhibition at 1 µM (%): 24%
[9]; read-out: Inhibition at 1 µM (%), CAMKK1 (CAMKKA), 1 µM, LanthaScreen Binding
  inhibition at 1 µM: 20%
[10]; [14]
  inhibition at 1 µM: 4%
[10]
  Inhibition at 1 µM (%): 2%
[10]; listed as WEL028, 1 µM
  Inhibition at 1 µM (%): 5%
[11]; [14]
  inhibition at 1 µM: 23%
[11]; [15]
  inhibition at 1 µM: 24%
[12]
  IC50: 251 nM
[12]; [14]
  inhibition at 1 µM: 106%
[12]; 1 h, log[inhibitor] (M) -5.00, ZLYTE, ATP 100
  inhibition at 10 µM: 104%
[12]; 1 h, log[inhibitor] (M) -5.48, ZLYTE, ATP 100
  inhibition at 3.311 µM: 103%
[12]; 1 h, log[inhibitor] (M) -5.95, ZLYTE, ATP 100
  inhibition at 1.122 µM: 99%
[12]; 1 h, log[inhibitor] (M) -6.43, ZLYTE, ATP 100
  inhibition at 0.3715 µM: 68%
[12]; 1 h, log[inhibitor] (M) -6.91, ZLYTE, ATP 100
  inhibition at 0.123 µM: 38%
[12]; 1 h, log[inhibitor] (M) -7.39, ZLYTE, ATP 100
  inhibition at 0.04074 µM: 33%
[12]; 1 h, log[inhibitor] (M) -7.86, ZLYTE, ATP 100
  inhibition at 0.0138 µM: 27%
[12]; 1 h, log[inhibitor] (M) -8.82, ZLYTE, ATP 100
  inhibition at 0.001514 µM: 16%
[12]; 1 h, log[inhibitor] (M) -9.31, ZLYTE, ATP 100
  inhibition at 0.0004898 µM: 10%
[12]; 1 h, log[inhibitor] (M) -[…], ZLYTE, ATP 100
  inhibition at 0.004571 µM: 20%
[12]; IC50 on that kinase divided by IC50 on FES^S700C
  Apparent fold selectivity: 54 fold
[12]; read-out: Inhibition at 1 µM (%), MAP2K2 (MEK2), 1 µM, ZLYTE, ATP 100
  inhibition at 1 µM: 109%
[13]; [14]
  inhibition at 1 µM: 46%
[13]; MAP2K3 (MEK3), 1 µM, LanthaScreen Binding, listed as WEL028, 1 µM
  Inhibition at 1 µM (%): 53%
[13]; read-out: Inhibition at 1 µM (%), MAP2K3 (MEK3), 1 µM, LanthaScreen Binding
  inhibition at 1 µM: 38%

Reference: paper PMC7316778 (Nature Communications, 2020)
